Experimental data as given in ChEMBL document CHEMBL4145649, “Identification of the 4-Position of 3-Alkynyl and 3-Heteroaromatic Substituted Pyridine Methanamines as a Key Modification Site Eliciting Increased Potency and Enhanced Selectivity for Cytochrome P-450 2A6 Inhibition” (J Med Chem, 2018).

What was measured:
[1] = molecular target: T1, Cytochrome P450 1A2 (Homo sapiens, UniProt P05177); assay: Inhibition of CYP1A2 in human liver microsomes using phenacetin as substrate preincubated for 5 mins followed by addition of NADPH-regenerating system and measured after 15 mins by UPLC-MS analysis
T1 sequence (P05177 whole entry): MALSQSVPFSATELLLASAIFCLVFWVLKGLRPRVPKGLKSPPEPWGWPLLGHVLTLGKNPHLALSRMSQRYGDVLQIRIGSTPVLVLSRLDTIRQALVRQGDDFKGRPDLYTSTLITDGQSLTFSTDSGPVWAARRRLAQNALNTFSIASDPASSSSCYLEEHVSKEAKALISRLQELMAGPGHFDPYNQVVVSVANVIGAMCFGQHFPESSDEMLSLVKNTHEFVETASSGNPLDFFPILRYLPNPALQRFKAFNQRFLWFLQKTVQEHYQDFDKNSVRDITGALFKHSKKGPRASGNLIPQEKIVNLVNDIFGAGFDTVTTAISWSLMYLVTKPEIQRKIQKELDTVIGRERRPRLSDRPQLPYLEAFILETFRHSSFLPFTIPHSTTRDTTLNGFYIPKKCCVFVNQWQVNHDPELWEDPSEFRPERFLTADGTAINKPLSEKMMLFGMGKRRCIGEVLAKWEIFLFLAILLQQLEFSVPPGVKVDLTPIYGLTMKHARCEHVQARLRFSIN

[2] = molecular target: T2, Cytochrome P450 2B6 (Homo sapiens, UniProt P20813); assay: Inhibition of CYP2B6 in human liver microsomes using bupropion as substrate preincubated for 5 mins followed by addition of NADPH-regenerating system and measured after 15 mins by UPLC-MS analysis
T2 sequence (P20813 whole entry): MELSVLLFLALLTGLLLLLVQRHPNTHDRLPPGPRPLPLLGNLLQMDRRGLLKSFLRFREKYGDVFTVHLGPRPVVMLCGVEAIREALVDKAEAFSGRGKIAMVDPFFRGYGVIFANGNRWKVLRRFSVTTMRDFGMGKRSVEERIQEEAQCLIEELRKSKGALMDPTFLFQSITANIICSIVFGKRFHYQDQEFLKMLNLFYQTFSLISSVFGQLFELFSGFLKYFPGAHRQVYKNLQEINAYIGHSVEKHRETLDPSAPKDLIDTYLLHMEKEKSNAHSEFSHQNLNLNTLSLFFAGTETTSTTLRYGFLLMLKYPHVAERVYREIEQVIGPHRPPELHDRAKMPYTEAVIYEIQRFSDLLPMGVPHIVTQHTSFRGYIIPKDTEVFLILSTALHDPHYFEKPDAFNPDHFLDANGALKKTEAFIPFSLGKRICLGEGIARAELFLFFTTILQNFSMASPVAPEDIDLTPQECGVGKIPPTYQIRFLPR

[3] = molecular target: T3, Cytochrome P450 2C8 (Homo sapiens, UniProt P10632); assay: Inhibition of CYP2C8 in human liver microsomes using amodiaquine as substrate preincubated for 5 mins followed by addition of NADPH-regenerating system and measured after 15 mins by UPLC-MS analysis
T3 sequence (P10632 whole entry): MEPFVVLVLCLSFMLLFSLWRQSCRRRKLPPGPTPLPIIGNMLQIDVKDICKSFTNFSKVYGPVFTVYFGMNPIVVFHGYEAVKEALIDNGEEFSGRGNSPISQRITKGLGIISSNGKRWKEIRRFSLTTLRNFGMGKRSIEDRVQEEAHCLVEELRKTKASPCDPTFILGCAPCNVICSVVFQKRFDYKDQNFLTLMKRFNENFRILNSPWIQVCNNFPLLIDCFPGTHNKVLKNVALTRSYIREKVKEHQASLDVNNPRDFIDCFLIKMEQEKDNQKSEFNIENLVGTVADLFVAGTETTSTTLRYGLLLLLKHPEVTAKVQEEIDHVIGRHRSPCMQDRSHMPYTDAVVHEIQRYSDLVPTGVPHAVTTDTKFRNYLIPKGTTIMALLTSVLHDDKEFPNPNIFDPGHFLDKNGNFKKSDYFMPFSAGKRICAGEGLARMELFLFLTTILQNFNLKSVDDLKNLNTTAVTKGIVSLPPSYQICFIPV

[4] = molecular target: Cytochrome P450 2D6 (Homo sapiens, UniProt P10635); assay: Inhibition of CYP2D6 in human liver microsomes using dextromethorphan as substrate preincubated for 5 mins followed by addition of NADPH-regenerating system and measured after 15 mins by UPLC-MS analysis
[5] = molecular target: Cytochrome P450 2E1 (Homo sapiens, UniProt P05181); assay: Inhibition of CYP2E1 in human liver microsomes using chlorzoxazone as substrate preincubated for 5 mins followed by addition of NADPH-regenerating system and measured after 15 mins by UPLC-MS analysis
[6] = molecular target: Cytochrome P450 3A4 (Homo sapiens, UniProt P08684); assay: Inhibition of CYP3A4 in human liver microsomes using midazolam as substrate preincubated for 5 mins followed by addition of NADPH-regenerating system and measured after 15 mins by UPLC-MS analysis
[7] = Half life in human liver microsomes at 10 uM up to 2 hrs at 37 degC in presence of NADPH-regenerating system by UPLC/MS analysis
[8] = molecular target: Cytochrome P450 2C9 (Homo sapiens, UniProt P11712); assay: Inhibition of CYP2C9 in human liver microsomes using diclofenac as substrate preincubated for 5 mins followed by addition of NADPH-regenerating system and measured after 15 mins by UPLC-MS analysis
[9] = molecular target: Cytochrome P450 2C19 (Homo sapiens, UniProt P33261); assay: Inhibition of CYP2C19 in human liver microsomes using omeprazole as substrate preincubated for 5 mins followed by addition of NADPH-regenerating system and measured after 15 mins by UPLC-MS analysis
[10] = molecular target: T4, Cytochrome P450 2A6 (Homo sapiens, UniProt P11509); assay: Inhibition of CYP2A6 in human liver microsomes using coumarin as substrate preincubated for 5 mins followed by addition of NADPH-regenerating system and measured after 15 mins by UPLC-MS analysis
T4 sequence (P11509 whole entry): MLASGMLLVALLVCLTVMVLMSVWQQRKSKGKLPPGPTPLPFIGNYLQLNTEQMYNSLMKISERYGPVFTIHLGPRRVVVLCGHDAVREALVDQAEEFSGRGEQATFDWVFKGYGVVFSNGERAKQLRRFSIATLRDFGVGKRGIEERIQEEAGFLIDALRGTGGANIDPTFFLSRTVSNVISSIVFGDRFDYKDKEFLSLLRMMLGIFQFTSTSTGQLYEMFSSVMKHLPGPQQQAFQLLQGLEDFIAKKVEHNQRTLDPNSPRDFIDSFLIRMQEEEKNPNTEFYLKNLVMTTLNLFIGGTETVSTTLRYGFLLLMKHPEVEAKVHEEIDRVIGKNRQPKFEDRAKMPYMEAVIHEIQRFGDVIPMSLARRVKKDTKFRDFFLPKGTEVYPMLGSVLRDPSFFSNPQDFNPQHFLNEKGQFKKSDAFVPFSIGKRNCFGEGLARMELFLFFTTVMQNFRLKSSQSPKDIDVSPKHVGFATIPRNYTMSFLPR

Cytochrome P450 3A4, sequence (P08684 whole entry): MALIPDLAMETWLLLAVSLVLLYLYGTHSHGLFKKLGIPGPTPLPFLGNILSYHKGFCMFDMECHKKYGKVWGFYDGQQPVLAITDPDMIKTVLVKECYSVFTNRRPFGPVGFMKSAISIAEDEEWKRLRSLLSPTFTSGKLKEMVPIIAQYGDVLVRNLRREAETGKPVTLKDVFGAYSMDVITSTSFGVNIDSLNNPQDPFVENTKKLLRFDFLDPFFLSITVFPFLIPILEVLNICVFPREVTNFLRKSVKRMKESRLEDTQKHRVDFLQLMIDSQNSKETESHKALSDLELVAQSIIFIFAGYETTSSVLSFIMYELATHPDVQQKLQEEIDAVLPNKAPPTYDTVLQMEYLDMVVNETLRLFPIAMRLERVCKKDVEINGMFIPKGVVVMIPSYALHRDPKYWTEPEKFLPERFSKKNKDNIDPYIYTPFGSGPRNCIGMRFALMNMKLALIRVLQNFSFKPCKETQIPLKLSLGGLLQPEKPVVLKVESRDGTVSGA
Cytochrome P450 2D6, sequence (P10635 whole entry): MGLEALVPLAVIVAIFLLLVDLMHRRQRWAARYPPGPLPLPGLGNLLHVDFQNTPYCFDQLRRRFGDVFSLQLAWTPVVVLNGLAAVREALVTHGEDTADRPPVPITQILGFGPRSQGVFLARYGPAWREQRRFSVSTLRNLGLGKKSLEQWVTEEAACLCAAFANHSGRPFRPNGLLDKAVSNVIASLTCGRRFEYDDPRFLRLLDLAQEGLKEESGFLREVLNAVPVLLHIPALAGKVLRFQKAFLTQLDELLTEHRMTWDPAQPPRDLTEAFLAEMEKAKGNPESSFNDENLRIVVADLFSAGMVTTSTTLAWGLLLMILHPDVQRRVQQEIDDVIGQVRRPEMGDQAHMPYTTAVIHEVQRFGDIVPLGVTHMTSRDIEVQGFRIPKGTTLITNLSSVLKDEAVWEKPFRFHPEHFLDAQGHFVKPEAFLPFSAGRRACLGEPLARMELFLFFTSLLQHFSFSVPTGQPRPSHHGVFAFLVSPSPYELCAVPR
Cytochrome P450 2C9, sequence (P11712 whole entry): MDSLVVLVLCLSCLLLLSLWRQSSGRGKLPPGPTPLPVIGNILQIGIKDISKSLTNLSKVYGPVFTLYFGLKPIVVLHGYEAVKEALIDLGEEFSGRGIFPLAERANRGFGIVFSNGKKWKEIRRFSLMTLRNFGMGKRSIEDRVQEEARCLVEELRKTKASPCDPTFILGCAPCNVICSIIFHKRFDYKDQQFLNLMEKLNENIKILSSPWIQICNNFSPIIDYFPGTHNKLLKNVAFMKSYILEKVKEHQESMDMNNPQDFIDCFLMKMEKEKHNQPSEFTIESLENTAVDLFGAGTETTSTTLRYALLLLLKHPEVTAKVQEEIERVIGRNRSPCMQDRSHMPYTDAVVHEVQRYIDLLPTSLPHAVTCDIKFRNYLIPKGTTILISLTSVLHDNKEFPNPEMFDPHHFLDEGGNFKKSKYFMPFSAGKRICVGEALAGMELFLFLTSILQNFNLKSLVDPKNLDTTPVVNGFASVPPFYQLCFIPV
Cytochrome P450 2E1, sequence (P05181 whole entry): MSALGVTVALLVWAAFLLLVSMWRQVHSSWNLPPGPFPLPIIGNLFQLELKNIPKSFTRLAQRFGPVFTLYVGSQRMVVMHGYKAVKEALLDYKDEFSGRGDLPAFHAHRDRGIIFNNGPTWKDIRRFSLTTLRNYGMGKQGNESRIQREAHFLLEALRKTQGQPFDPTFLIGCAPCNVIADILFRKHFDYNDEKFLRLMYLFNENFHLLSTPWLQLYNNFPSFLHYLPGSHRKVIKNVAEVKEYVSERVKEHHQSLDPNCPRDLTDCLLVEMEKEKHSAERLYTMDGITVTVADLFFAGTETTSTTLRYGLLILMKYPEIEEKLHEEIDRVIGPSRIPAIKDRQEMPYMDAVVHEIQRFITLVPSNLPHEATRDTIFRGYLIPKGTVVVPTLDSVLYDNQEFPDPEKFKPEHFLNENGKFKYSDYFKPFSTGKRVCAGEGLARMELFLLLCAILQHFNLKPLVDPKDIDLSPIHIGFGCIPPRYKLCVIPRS
Cytochrome P450 2C19, sequence (P33261 whole entry): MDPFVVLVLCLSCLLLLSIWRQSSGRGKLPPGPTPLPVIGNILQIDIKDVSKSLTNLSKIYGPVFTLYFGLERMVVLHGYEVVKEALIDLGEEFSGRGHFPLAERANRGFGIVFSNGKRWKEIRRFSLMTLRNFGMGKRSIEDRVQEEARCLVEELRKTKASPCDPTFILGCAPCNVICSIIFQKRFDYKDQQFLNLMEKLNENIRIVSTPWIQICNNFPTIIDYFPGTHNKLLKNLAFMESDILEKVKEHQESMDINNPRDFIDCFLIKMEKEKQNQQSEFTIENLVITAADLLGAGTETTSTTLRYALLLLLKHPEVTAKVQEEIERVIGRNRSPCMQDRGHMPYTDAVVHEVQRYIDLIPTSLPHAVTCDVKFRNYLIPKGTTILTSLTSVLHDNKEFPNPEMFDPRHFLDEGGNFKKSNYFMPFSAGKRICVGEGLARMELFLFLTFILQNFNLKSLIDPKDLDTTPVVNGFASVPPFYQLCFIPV

Row | Compound | IC50 [1] [µM] | IC50 [2] [µM] | IC50 [3] [µM] | IC50 [4] [µM] | IC50 [5] [µM] | IC50 [6] [µM] | t1/2 [7] [min] | IC50 [8] [µM] | IC50 [9] [µM] | IC50 [10] [µM]
1 | Cl.Cl.Cl.NCC#Cc1cnccc1-c1ccncc1 | 21 | > 25 | > 50 | 12 | > 25 | > 25 | 36 |  |  | 
2 | NCC#Cc1cnccc1-c1cncnc1 | > 25 | > 25 | > 50 | > 25 | > 25 | > 25 |  |  |  | 
3 | NCC#Cc1cnccc1-c1ccco1 | 1.4 | 5 | 7.5 | 3.9 | 1.9 | 11 |  | 2.8 | 3.7 | 
4 | Cl.Cl.Cl.Cl.NCc1ccc(-c2cnccc2-c2cncnc2)s1 | 25 | 40 | > 25 |  | > 50 | 39 | > 120 |  |  | 
5 | Cl.Cl.Cl.NCc1ccc(-c2cnccc2-c2cccnc2)o1 | 4.4 | 7.8 | > 25 |  | 31 | 90 | > 120 | 28 | 13 | 
6 | COc1ccncc1C#CCN | 25 | 11 | > 50 | > 50 | 18 | > 50 |  | 28 | 9.3 | 
7 | Cl.Cl.Cl.Cl.NCc1ccc(-c2cnccc2-c2cncnc2)o1 | 7.6 | > 25 | > 50 |  | > 50 | > 25 | > 120 | > 25 | > 25 | 
8 | NCc1ccc(-c2cnccc2-c2ccco2)s1 | 0.2 | 0.073 | 3.8 | > 50 | 3.1 | 7 |  | 4.4 | 1.4 | 
9 | NCC#Cc1cncnc1 |  |  |  |  |  |  |  |  |  | > 10
10 | Cl.Cl.Cl.NCc1ccc(-c2cnccc2-c2ccncc2)s1 | 4.8 | 3.5 | > 25 |  | 31 | 214 | 32 |  |  | 
11 | Cc1cncc(C#CCN)c1 |  |  |  |  |  |  |  |  |  | > 10
12 | Cc1ccncc1C#CCN.Cl.Cl | 11 | 20 | 8.6 | 2.4 | 19 | 5.6 | 8.4 | 36 | 8 | 
13 | CCc1ccncc1C#CCN.Cl.Cl | > 50 | 19 | 25 | 6.6 | 15 | > 50 | 9.8 |  |  | 
